Reference: the NIST ThermoML archive (doi:10.1021/acs.jced.8b00438)

Assay: xn = mol fraction of the nth substance listed
Settings: 100 kPa, Liquid; for viscosity: Falling or rolling sphere viscometry; for mass density: Vibrating tube method

CCCCCCCCCCCC [dodecane] + CCCCO
Settings | mass density, 293.15 K [kg/m3] | mass density, 298.15 K [kg/m3] | mass density, 303.15 K [kg/m3] | mass density, 308.15 K [kg/m3] | viscosity, 293.15 K [mPa·s] | viscosity, 298.15 K [mPa·s] | viscosity, 303.15 K [mPa·s] | viscosity, 308.15 K [mPa·s] | viscosity, 313.15 K [mPa·s]
x1 = 0.1045 | 794.67 | 790.86 | 787.01 | 783.13 | 2.478 | 2.183 | 1.934 | 1.721 | 1.537
x1 = 0.2008 | 784.43 | 780.62 | 776.76 | 772.86 | 2.167 | 1.919 | 1.709 | 1.529 | 1.373
x1 = 0.3002 | 776.26 | 772.45 | 768.59 | 764.7 | 1.935 | 1.722 | 1.543 | 1.388 | 1.254
x1 = 0.3985 | 769.8 | 765.97 | 762.12 | 758.24 | 1.772 | 1.588 | 1.43 | 1.295 | 1.177
x1 = 0.4995 | 764.28 | 760.49 | 756.67 | 752.82 | 1.64 | 1.477 | 1.338 | 1.218 | 1.114
x1 = 0.5978 | 759.94 | 756.17 | 752.37 | 748.54 | 1.561 | 1.414 | 1.287 | 1.177 | 1.082
x1 = 0.7012 | 755.99 | 752.24 | 748.47 | 744.67 | 1.494 | 1.359 | 1.242 | 1.141 | 1.051
x1 = 0.7671 | 754.1 | 750.38 | 746.62 | 742.85 | 1.476 | 1.345 | 1.231 | 1.132 | 1.045
x1 = 0.8773 | 751.22 | 747.52 | 743.81 | 740.07 | 1.458 | 1.331 | 1.22 | 1.124 | 1.04
x1 = 1 | 748.83 | 745.22 | 741.59 | 737.95 | 1.491 | 1.366 | 1.257 | 1.154 | 1.076
